The values that follow come from ChEMBL document CHEMBL1144179, “Molecular modeling aided design of nicotinic acid receptor GPR109A agonists” (Bioorg Med Chem Lett, 2008).

Each structure is given as a SMILES string.

Data set [1] has as its target Hydroxycarboxylic acid receptor 2 (Homo sapiens) (UniProt Q8TDS4). The experiment in a line: Displacement of [3H]nicotinic acid from human GPR109A receptor expressed in CHO-K1 cells at 25 uM. It counts as cell-based. (In general: In a radioligand displacement assay an active substance lowers the binding of a labelled ligand.)
The target is the same in data set [2]. As to the kind of experiment: Displacement of [3H]nicotinic acid from human GPR109A receptor expressed in CHO-K1 cells at 2.5 uM. It is filed as cell-based.
The next data set has as its system Mus musculus. The experiment in a line: Induction of vasodilation in mouse assessed as arbitrary units from vasodilation AUC curve at 100 mg/kg. It is filed as functional.
The nature of data set [3]: Plasma clearance in mouse. It counts as ADME, organism-based.
A short description of data set [4]: Volume of distribution at steady state in mouse. The following applies: in vivo, read-out: Vdss. It is filed as ADME, organism-based.
The nature of data set [5]: Half life in mouse. It counts as ADME, organism-based. The following applies: in vivo.
Data set [6] is described as follows: Cmax in mouse. It counts as ADME, organism-based. The following applies: in vivo.
Data set [7] can be described thus: Oral bioavailability in mouse. It counts as ADME, organism-based. The following applies: in vivo.

For `O=C(COc1ccccc1)Nc1ccccc1C(=O)O`, the Activity in data set [1] was found to be 40%; in data set [2], 78%.

For `O=C(CCc1ccccc1)Nc1ccccc1C(=O)O`, the Activity in data set [1] came to 52%; in data set [2], 88%.

Take `O=C(O)c1cccnc1` [NIACIN]: the Activity in the data set with Mus musculus is 707.

With `COc1ccc(OCC(=O)Nc2ccccc2C(=O)O)cc1`, the values for the Activity in data set [1] and in data set [2] were 33% and 69%, respectively.

For `O=C(CCc1ccc2cc(O)ccc2c1)Nc1ccccc1C(=O)O`, the clearance in data set [3] is 6.2 mL/min/kg. In addition, the Vd in data set [4] was 0.7 L/kg. The molecule also had a half-life in data set [5] of 3.2 h. For the same molecule, the Cmax in data set [6] worked out at 6.6 µM. The Activity in the data set with Mus musculus came out at 59. The bioavailability in data set [7] came to 55%.

By clearance is commonly meant the rate of elimination divided by the concentration. A low value points to inefficient removal. The half-life is the time needed for the level to fall by half in the phase considered. One may read the Cmax as the peak of the concentration-time curve. The bioavailability is the share of a dose that reaches the circulation, judged against a reference dose that is usually intravenous. Low readings indicate little systemic uptake, high ones much systemic uptake.
